SMILES strings stand for the structures.

One data set can be described thus: Measurement of pKa value of the dyes (spectrophotometric titration). The format is physicochemical. Particulars: DMF/water (1/1), titration from pH 2 with NaOH, UV-vis inflection point. The protocol: The pKa values of the dyes can be determined by the following method. The dye is dissolved in a solution of a DMF/water (1/1) volume ratio to a final concentration of 2×10^−5 mol/l. After adjusting the resulting solution to pH 2, using 1.0 mol/l hydrochloric acid, the solution is titrated with aqueous 1.0 mol/l sodium hydroxide solution. Recording the change of the visible ultra-violet absorption spectrum, the inflection point can be determined by regression analysis.
By pKa is commonly meant the pH at which an ionisable group is half protonated. `CC(=O)Nc1cc(/N=N/c2nncs2)ccc1O` [Dye 1] displayed a pKa of 6.0.
On the same count and under the same terms, then `O=C(Nc1cc(/N=N/c2nc(-c3ccccc3)no2)c2ccccc2c1O)c1ccncc1` [Dye 2], with 5.5; and `CS(=O)(=O)c1ccc(/N=N/c2ccc(O)c3ccccc23)c(C#N)c1` [Dye 3], with 6.5; and `CSc1nnc(/N=N/c2ccc(O)c(NC(C)=O)c2)s1` [Dye 5], with 6.1.
Still for that read-out and setting: then `CC(=O)Nc1cc(/N=N/c2nc3ccccc3s2)ccc1O` [Dye 6], with 6.2.
Same read-out and setting: then `Oc1ccc(/N=N/c2nc3ccccc3s2)cc1Cl` [Dye 7], with 5.9; and `CCSc1nnc(N=Nc2ccc(O)c3cccc(NS(C)(=O)=O)c23)s1` [Dye 8], with 4.4.
In turn, `CS(=O)(=O)Nc1cccc2c(O)ccc(N=Nc3nc4ccccc4s3)c12` [Dye 9] registered a pKa of 6.1.
On the same count and under the same terms, then `CCC(=O)Nc1cc(N=Nc2snc3ccc(S(N)(=O)=O)cc23)cc(Cl)c1O` [Dye 12], with 4.0.
The same measure, in the same setting: then `NS(=O)(=O)c1ccc2nsc(N=Nc3cc(Cl)c(O)cc3Cl)c2c1` [Dye 13], with 4.7.
Still for that read-out and setting: then `COCCOc1ccc(N=NC2C(=O)N(c3ccccc3)N=C2C(N)=O)cc1S(N)(=O)=O` (stereo not drawn) [Dye 21], with 6.4; and `CCSc1nnc(/N=N/c2c(C(C)(C)C)nn3nc(C)[nH]c23)s1` [Dye 22], with 5.5; and `N#CC(/N=N/c1ccc(S(N)(=O)=O)cc1)C(=O)c1ccccc1` (stereo not drawn) [Dye 23], with 5.8.
As to `Cc1nn2nc(C(C)(C)C)c(/N=N/c3cc(Cl)c(S(N)(=O)=O)cc3Cl)c2[nH]1` [Dye 24], the pKa worked out at 5.9.
`CCSc1nsc(/N=N/c2cc(Cl)c(O)c(NC(=O)CC)c2)n1` [Dye 25, reference compound] came in with a pKa of 3.0.
The same measure, in the same setting: then `CCSc1nsc(/N=N/c2cc(Cl)c(O)cc2Cl)n1` [Dye 26, reference compound], with 3.5; and `CCC(=O)Nc1cc(/N=N/c2nc(C)ns2)cc(Cl)c1O` [Dye 29, reference compound], with 3.3.
On the same count and under the same terms, then `Cc1nsc(/N=N/c2cc(Cl)c(O)cc2Cl)n1` [Dye 30, reference compound], with 3.8; and `Cc1nsc(/N=N/c2ccc(O)c(Cl)c2)n1` [Dye 31, reference compound], with 5.0; and `CC(=O)Nc1cc(N=Nc2nc(C)ns2)ccc1O` [Dye 32, reference compound], with 5.2.
Same read-out and setting: then `CCSc1nnc(/N=N/c2c(C(C)(C)C)nn3nc(C(C)C)[nH]c23)s1` [Dye 35, reference compound], with 4.7.
`CCc1nn2c(-c3ccc(OC)c(NS(C)(=O)=O)c3)n[nH]c2c1/N=N/c1nc(C(C)C)no1` [Dye 36, reference compound] came in with a pKa of 5.2.
On the same count and under the same terms, then `CNS(=O)(=O)c1ccc2nsc(/N=N/c3cc(NC(C)=O)c(O)c(NC(C)=O)c3)c2c1` [Dye 39, reference compound], with 3.9.

Staying with this data set, now noted: DMF/water (1/1 v/v) solution, titration from pH 2 with NaOH, UV-vis inflection point, read-out: pKa.
`CC(=O)Nc1cc(/N=N/c2ccc(S(C)(=O)=O)cc2C#N)c2ccccc2c1O` [Dye 4]: the pKa was 7.
Still for that read-out and setting: then `CS(=O)(=O)Nc1cccc2c(O)ccc(/N=N/c3snc4ccc(S(N)(=O)=O)cc34)c12` [Dye 10], with 5; and `CC(=O)Nc1cc(/N=N/c2snc3ccc(S(N)(=O)=O)cc23)c(Cl)c(Cl)c1O` [Dye 27, reference compound], with 3.
The same measure, in the same setting: then `CCC(=O)Nc1cc(/N=N/c2nccs2)cc(Cl)c1O` [Dye 28, reference compound], with 4.8.

Values taken from US7198651B2, “Method of effecting a reversible color change of dyed hair” (Kao Corporation, priority 2003, dated 2007).
